Test results taken from paper PMC2904454 (Cancer Chemotherapy and Pharmacology, 2009).
Like-named read-outs stand apart in the source and are kept apart here.

Legend:
[1] = Plasma pharmacokinetics of sunitinib, SU12662 and total drug; format: in vivo, human; conditions: for Mean trough plasma concentration: day 14 of cycle 1, Schedule 2/1
[2] = system: patients with advanced solid tumors; format: in vivo, human; conditions: for MTD of docetaxel in combination with sunitinib: IV q21d; for MTD of sunitinib in combination with docetaxel: with docetaxel q21d
[3] = Plasma pharmacokinetics of docetaxel; format: in vivo, human; conditions: for half-life / AUC(0-inf) / Cmax / Tmax: plasma, intravenous; for Tmax: median (range)
[4] = system: breast cancer and NSCLC; conditions: cited from earlier work
[5] = system: NSCLC; conditions: ESCAPE, with carboplatin and paclitaxel in NSCLC; cited from earlier work
[6] = system: patients with advanced solid tumors; experiment: Safety: adverse events graded by NCI CTCAE v3.0, ECG/MUGA, patient disposition; format: in vivo, human; conditions: with docetaxel
[7] = Schedule 2/1 dose level 3b (MTD), n = 10
[8] = Schedule 2/1 dose level 3b (MTD), n = 10, docetaxel + sunitinib (day 1 of cycle 2)
[9] = Schedule 2/1 dose level 3b (MTD), n = 10, sunitinib alone (day 3 of cycle 1)
[10] = Schedule 4/2 dose level 0, n = 3
[11] = Schedule 4/2 dose level 0, n = 3, docetaxel + sunitinib (day 22)
[12] = Schedule 4/2 dose level 0, n = 3, sunitinib alone (day 18)
[13] = Schedule 4/2 dose level 1, n = 5
[14] = Schedule 4/2 dose level 1, n = 5, docetaxel + sunitinib (day 22)
[15] = Schedule 4/2 dose level 1, n = 5, sunitinib alone (day 18)
[16] = Schedule 2/1 dose level 3b, n = 8
[17] = Schedule 2/1 MTD only, dose level 3b (n = 23)
[18] = Schedule 2/1 dose levels 0–3b, all patients (N = 40)
[19] = Schedule 4/2 dose levels 0–1 (N = 10)

For `CCNCCNC(=O)c1c(C)[nH]c(/C=C2\C(=O)Nc3ccc(F)cc32)c1C` [SU12662], the “AUC0–24 geometric mean ratio (combination/drug alone)” value [1, 7] was 0.99, the “C max geometric mean ratio (combination/drug alone)” value [1, 7] was 1.16 and the “AUC0–24, mean (SD)” value [1, 8] was 62.7 (32.4) ng*h/mL. The “C max, mean (SD)” value [1, 8] was 4.1 (1.9) ng/mL, the “T max, median (range)” value [1, 8] was 7.0 (2.0, 24.0) h and the “C max, mean (SD)” value [1, 9] was 3.4 (1.3) ng/mL. For the same compound, the “T max, median (range)” value [1, 9] was 5.0 (4.0, 24.0) h, the “AUC0–24, mean (SD)” value ([1]; Schedule 2/1 dose level 3b (MTD: sunitinib 37.5 mg + docetaxel 75 mg/m^2 q21d), n = 10, sunitinib alone (day 3 of cycle 1)) was 58.0 (22.3) ng*h/mL and the “AUC0–24, mean (SD)” value ([1]; Schedule 4/2 dose level 0 (sunitinib 25 mg, docetaxel 60 mg/m^2), n = 3, sunitinib alone (day 18)) was 294.0 (195.0) ng*h/mL. The “AUC0–24 geometric mean ratio (combination/drug alone)” value [1, 10] was 1.10, the “C max geometric mean ratio (combination/drug alone)” value [1, 10] was 1.14 and the “AUC0–24, mean (SD)” value [1, 11] was 299.9 (132.7) ng*h/mL. The “C max, mean (SD)” value [1, 11] was 14.4 (7.2) ng/mL, the “T max, median (range)” value [1, 11] was 4.0 (2.0, 4.0) h and the “C max, mean (SD)” value [1, 12] was 13.3 (8.3) ng/mL. For the same compound, the “T max, median (range)” value [1, 12] was 4.0 (4.0, 12.0) h, the “AUC0–24, mean (SD)” value ([1]; Schedule 4/2 dose level 1 (sunitinib 37.5 mg, docetaxel 60 mg/m^2), n = 5, sunitinib alone (day 18)) was 341.9 (110.9) ng*h/mL and the “AUC0–24 geometric mean ratio (combination/drug alone)” value [1, 13] was 1.06. For the same compound, the “C max geometric mean ratio (combination/drug alone)” value [1, 13] was 1.05, the “AUC0–24, mean (SD)” value [1, 14] was 366.8 (137.5) ng*h/mL and the “C max, mean (SD)” value [1, 14] was 17.7 (7.2) ng/mL. The “T max, median (range)” value [1, 14] was 4.0 (1.0, 12.0) h, the “C max, mean (SD)” value [1, 15] was 16.3 (4.6) ng/mL and the “T max, median (range)” value [1, 15] was 6.0 (2.0, 12.0) h. For the same compound, the “Mean trough plasma concentration” value [1] was 16.4 ng/mL.

For `CC(=O)O[C@@]12CO[C@@H]1C[C@H](O)[C@@]1(C)C(=O)[C@H](O)C3=C(C)[C@@H](OC(=O)[C@H](O)[C@@H](NC(=O)OC(C)(C)C)c4ccccc4)C[C@@](O)([C@@H](OC(=O)c4ccccc4)[C@H]21)C3(C)C` [docetaxel, Docetaxel], the “MTD of docetaxel in combination with sunitinib” value ([2]; with sunitinib on Schedule 2/1) was 75 mg/m^2, the “MTD of docetaxel in combination with sunitinib” value ([2]; with sunitinib on Schedule 4/2) was 60 mg/m^2 and the “AUCinf geometric mean ratio (combination/drug alone)” value [3, 16] was 1.12. The “AUClast geometric mean ratio (combination/drug alone)” value [3, 16] was 1.16, the “C max geometric mean ratio (combination/drug alone)” value [3, 16] was 1.24 and the “AUCinf geometric mean ratio (combination/drug alone)” value [3, 13] was 1.43. For the same compound, the “AUClast geometric mean ratio (combination/drug alone)” value [3, 13] was 1.47, the “C max geometric mean ratio (combination/drug alone)” value [3, 13] was 1.46 and the “AUClast, mean (SD)” value ([3]; human, in vivo) was 2,712.5 (731.9) ng*h/mL. It also gave an AUC(0-t) ([3]; human, in vivo, AUClast, mean (SD)) of 2290 ng·h/mL, a half-life ([3]; human, 60 mg/m^2) of 19.6 h and an AUC(0-inf) ([3]; human, 60 mg/m^2, AUCinf, mean (SD), Schedule 4/2 dose level 1, n = 5, drug alone (day 1 of cycle 1)) of 2550 ng·h/mL. It also gave a half-life ([3]; human, 75 mg/m^2) of 15.7 h, an AUC(0-inf) ([3]; human, 75 mg/m^2, AUCinf, mean (SD), Schedule 2/1 dose level 3b, n = 8, drug alone (day 1 of cycle 1)) of 2960 ng·h/mL and a Cmax ([3]; human, 75 mg/m^2, C max, mean (SD), Schedule 2/1 dose level 3b, n = 8, drug alone (day 1 of cycle 1)) of 2580 ng/mL. For the same compound, the Tmax ([3]; human, 75 mg/m^2, T max, Schedule 2/1 dose level 3b, n = 8, drug alone (day 1 of cycle 1)) was 0.6 h, the AUC(0-inf) ([3]; human, AUCinf, mean (SD), Schedule 4/2 dose level 1, n = 5, docetaxel + sunitinib (day 22 of cycle 1)) was 3690 ng·h/mL and the Cmax ([3]; human, C max, mean (SD), Schedule 2/1 dose level 3b, n = 8, docetaxel + sunitinib (day 1 of cycle 2)) was 3180 ng/mL. The Cmax ([3]; human, C max, mean (SD), Schedule 4/2 dose level 1, n = 5, docetaxel + sunitinib (day 22 of cycle 1)) was 3100 ng/mL, the Tmax ([3]; human, T max, Schedule 2/1 dose level 3b, n = 8, docetaxel + sunitinib (day 1 of cycle 2)) was 0.8 h and the “Grade 3/4 neutropenia, patients” value ([4]; docetaxel monotherapy, phase III trials of breast cancer and NSCLC) was 54–84%. For the same compound, the “Use of granulocytic growth factor support” value ([4]; single-agent docetaxel) was 17.9%.

For `CNC(=O)c1cc(Oc2ccc(NC(=O)Nc3ccc(Cl)c(C(F)(F)F)c3)cc2)ccn1` [sorafenib], the Febrile neutropenia rate [5] is given as 5% and the “Grade 3/4 thrombocytopenia rate” value [5] is given as 14%.

For `CCN(CC)CCNC(=O)c1c(C)[nH]c(/C=C2\C(=O)Nc3ccc(F)cc32)c1C` [sunitinib, Sunitinib malate], the “MTD of sunitinib in combination with docetaxel” value ([2]; Schedule 2/1, oral) was 37.5 mg/day, the “MTD of sunitinib in combination with docetaxel” value ([2]; Schedule 4/2, oral) was 25 mg/day and the “Dose reduction for sunitinib” value [6, 17] was 4 (17) n (%). The “Treatment interruption for sunitinib, adverse event” value (“Treatment interruption” for short) [6, 17] was 9 (39) n (%), the “Dose reduction for sunitinib” value [6, 18] was 5 (13) n (%) and the “Treatment interruption” value [6, 18] was 11 (28) n (%). The “Dose reduction for sunitinib” value [6, 19] was 1 (10) n (%), the “Treatment interruption” value [6, 19] was 3 (30) n (%) and the “Mean trough plasma concentration” value [1] was 43.8 ng/mL. For the same compound, the AUC(0-t) ([1]; human, in vivo) was 297 ng·h/mL, the AUC(0-t) ([1]; human, in vivo, AUC0–24, mean (SD)) was 1170 ng·h/mL and the AUC(0-t) ([1]; human, plasma, oral, 25 mg, AUC0–24, mean (SD), Schedule 4/2 dose level 0 (sunitinib 25 mg, docetaxel 60 mg/m^2), n = 3, sunitinib alone (day 18)) was 721 ng·h/mL. The Tmax ([1]; human, plasma, oral, 37.5 mg) was 8 h, the AUC(0-t) ([1]; human, plasma, oral, AUC0–24, mean (SD), Schedule 4/2 dose level 0, n = 3, docetaxel + sunitinib (day 22)) was 548 ng·h/mL and the AUC(0-t) ([1]; human, plasma, oral, AUC0–24, mean (SD), Schedule 4/2 dose level 1, n = 5, docetaxel + sunitinib (day 22)) was 1020 ng·h/mL.
